Earlier results, collected in US20040162333A1, “Rapid absorption selective 5-HT agonist formulations” (priority 2003, published 2004).

Conditions: commercially available oral triptans

| SMILES | Time to Peak Effect (Tmax) [h] |
| --- | --- |
| CN[C@@H]1CCc2[nH]c3ccc(C(N)=O)cc3c2C1 [Frovatriptan (Frova), Frovatriptan] | 2 to 4 |
| CNS(=O)(=O)Cc1ccc2[nH]cc(CCN(C)C)c2c1 [Sumatriptan] | 2.5 |

Now from value to compound:

| Time to Peak Effect (Tmax) [h] | SMILES |
| --- | --- |
| 2 | CN(C)CCc1c[nH]c2ccc(C[C@H]3COC(=O)N3)cc12 [Zolmitriptan (Zomig), Zolmitriptan] |
| 1 to 3 | CN(C)CCc1c[nH]c2ccc(CS(=O)(=O)N3CCCC3)cc12 [Almotriptan (Axert), Almotriptan] |
| 1 to 1.5 | CN(C)CCc1c[nH]c2ccc(Cn3cncn3)cc12 [Rizatriptan (Maxalt), Rizatriptan] |
| 2 to 3 | CNS(=O)(=O)CCc1ccc2[nH]cc(C3CCN(C)CC3)c2c1 [Naratriptan (Amerge), Naratriptan] |
